Data taken from US12648903B2, “Skin care composition” (BEIERSDORF AG, priority 2019, dated 2026).

How the values were obtained:
[1] = system: C. acnes strain K8; assay: Minimum inhibitory concentration (MIC) of cosmetic excipients, strain K8; assay type: cell-based, Cutibacterium acnes; conditions: % w/vol, incubated anaerobically 3 days at 37° C., growth scored visually
Method: (§1) In microbiology, the MIC is the lowest concentration of a chemical which prevents visible growth of bacterium. The resulted MIC value depends both on the microorganism and the test compound. The MIC is determined by preparing concentrations series of the test compound in vitro, incubating the solutions with the separate batches of cultured bacteria, and measuring the results using agar dilution or broth microdilution. For the experiments with C. acnes strains C3 and K8, media comprising yeast extract soy peptone and dextrose were used. The MIC is determined by turbidity.
(§2) A total of 125 cosmetic excipients were tested for their compatibility with C. acnes strains C3 and K8. Hydrophilic compounds were tested in a 96-well plate liquid broth format, poorly soluble compounds were pre-dissolved in DMSO before dilution in liquid broth and hydrophobic or solid compounds were tested in an agar well diffusion test assay. The different dilutions of the test excipients in media were prepared in Falcon tubes and then distributed in a deep well plate using a multistepper. Each well received 1.2 ml and was subsequently inoculated with 120 μl of C. acnes bacteria suspension (strain C3 and K8). From the deep well plate 200 μl were transferred in each well of a clear 96 well replicate plate. The leftover was discarded. The plates were then incubated anaerobically for 3 days at 37° C. Following incubation, the test plates were visually examined and wells were scored for growth or complete growth inhibition to define the minimum inhibitory concentration.
(§3) These excipients are listed in the below table with their compatibility values for C. acnes strains C3 and K8. The compatibility values represent the MIC value of the listed ingredients with the tested C. acnes strains. At this concentration [% w/vol] the tested compound starts interfering with the growth of the tested strains. The compounds can be used in formulations at concentrations below this concentration.

[2] = system: C. acnes strain C3; assay: Minimum inhibitory concentration (MIC) of cosmetic excipients, strain C3; assay type: cell-based, Cutibacterium acnes; conditions: % w/vol, incubated anaerobically 3 days at 37° C., growth scored visually
Method: as §1, §2, §3

Molecule | COMPATABILITY VALUE K8 [%] (MIC value) [1] | COMPATABILITY VALUE C3 [%] (MIC value) [2]
CC(CO)CO [methylpropanediol] | 4.00% | 4.00%
tocopherol | 1.50% | 1.50%
ethylhexyl cocoate | 10.00% | 10.00%
CCCCCCC(O)CO (centres unmarked) [caprylyl glycol] | 0.18% | 0.18%
